Assay results taken from patent publication US12440494B2, “Compounds useful for inhibiting RAF dimers” (ALBERT EINSTEIN COLLEGE OF MEDICINE, priority 2019, dated 2025).

How the values were obtained:
[1] = molecular target: T1, BRAF^V600E (Homo sapiens (Human), UniProt P15056, V600E); assay: BRAF^V600E kinase activity, Z′-LYTE enzymatic assay (SelectScreen, Invitrogen); assay type: biochemical; conditions: 100 μM ATP; read-out: BRAF^V600E Inhibition IC50
Description: BRAF kinase assays were performed using the Z′-LYTE™ enzymatic assay (Invitrogen, USA). […] Titrations were performed using a 1:3 dilution. Assays were performed using SelectScreen (Invitrogen).
Target sequence in this assay (P15056 whole entry V600E): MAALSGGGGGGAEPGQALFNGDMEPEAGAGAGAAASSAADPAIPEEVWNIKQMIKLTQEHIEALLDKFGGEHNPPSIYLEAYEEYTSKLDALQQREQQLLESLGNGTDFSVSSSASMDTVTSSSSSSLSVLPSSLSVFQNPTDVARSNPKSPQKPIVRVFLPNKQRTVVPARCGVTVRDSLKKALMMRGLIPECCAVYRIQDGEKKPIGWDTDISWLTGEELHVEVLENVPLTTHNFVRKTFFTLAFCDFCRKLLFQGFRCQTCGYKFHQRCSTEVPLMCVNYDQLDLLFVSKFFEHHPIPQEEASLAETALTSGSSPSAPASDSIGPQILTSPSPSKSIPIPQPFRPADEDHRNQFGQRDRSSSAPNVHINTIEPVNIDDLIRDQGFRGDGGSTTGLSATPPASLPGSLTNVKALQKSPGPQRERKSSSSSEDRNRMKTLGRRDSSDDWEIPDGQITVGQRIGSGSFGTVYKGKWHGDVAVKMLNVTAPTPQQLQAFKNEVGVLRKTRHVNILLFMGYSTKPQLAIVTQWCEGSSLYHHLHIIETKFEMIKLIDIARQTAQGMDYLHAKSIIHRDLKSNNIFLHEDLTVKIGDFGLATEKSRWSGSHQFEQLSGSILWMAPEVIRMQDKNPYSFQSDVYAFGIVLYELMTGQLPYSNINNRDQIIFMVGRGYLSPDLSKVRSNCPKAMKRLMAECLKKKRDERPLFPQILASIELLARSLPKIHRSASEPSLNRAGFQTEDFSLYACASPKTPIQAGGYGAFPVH

[2] = molecular target: T1, BRAF^V600E; assay: In vitro kinase assay, BRAF^V600E activity to phosphorylate recombinant MEK (western blot); assay type: biochemical; conditions: western blot readout
Target sequence in this assay (P15056 457-717 V600E): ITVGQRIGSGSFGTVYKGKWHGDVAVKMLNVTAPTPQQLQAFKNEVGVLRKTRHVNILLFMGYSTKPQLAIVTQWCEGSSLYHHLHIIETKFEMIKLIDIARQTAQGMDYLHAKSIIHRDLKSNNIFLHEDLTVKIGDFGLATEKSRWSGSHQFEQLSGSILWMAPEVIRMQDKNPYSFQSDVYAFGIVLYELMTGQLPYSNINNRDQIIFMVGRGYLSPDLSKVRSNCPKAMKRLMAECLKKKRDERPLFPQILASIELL
Description: (§2) Western blots were performed from whole cell lysates (WCL) prepared in lysis buffer containing 50 mM Tris-HCl pH7.5, 1% NP40, 150 mM NaCl, 1 mM EDTA and 10% glycerol in the presence of protease inhibitor cocktail (Roche). […] Co-immunoprecipitation assays were performed from whole cell lysate prepared in lysis buffer in the presence of protease inhibitor cocktail (Roche) and incubated at 4° C. overnight with gentle rotation, then protein G beads were added and incubated for 2 hrs more at 4° C. Kinase activity assay were performed following manufactured protocol with some modifications (Millipore). In brief, BRAF and CRAF kinase domain, and MEK1 recombinant proteins were incubated for 15 min with inhibitors, then corresponding substrates were added and incubated for 30 min at 30° C. and assay for western blot.

[3] = molecular target: CRAF (Homo sapiens (Human), UniProt P04049); assay: In vitro CRAF kinase activity assay (western blot); assay type: biochemical
Chain of CRAF (P04049 349-609, species assumed): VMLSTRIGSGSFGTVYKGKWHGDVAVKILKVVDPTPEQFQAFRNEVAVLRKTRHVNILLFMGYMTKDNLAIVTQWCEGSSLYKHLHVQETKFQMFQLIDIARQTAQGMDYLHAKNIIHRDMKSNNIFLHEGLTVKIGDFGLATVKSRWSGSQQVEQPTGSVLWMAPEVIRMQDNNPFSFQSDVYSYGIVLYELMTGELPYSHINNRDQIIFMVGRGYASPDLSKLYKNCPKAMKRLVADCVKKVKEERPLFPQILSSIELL
Description: as §2

[4] = test system: ERK signaling; assay: Inhibition of ERK signaling in BRAF^V600E, p61BRAF^V600E and RAS mutant/BRAF^WT cell lines (immunoblot); assay type: cell-based; conditions: 1 μM or 5 μM, 1 hr, all cell lines
Description: (§1) Cell lines were purchased from ATCC or provided by Poulikos Poulikakos laboratory at Icahn School of Medicine at Mount Sinai. A375, SKMEL30 and SKMEL2 cells were grown in Dulbecco's modified Eagle's medium (DMEM) with 10% fetal bovine serum (FBS), 1% Pen-Strep, 1% Glutamine. […] CALU6 cells were grown in Roswell Park Memorial Institute medium (RPMI) with 10% fetal bovine serum (FBS), 1% Pen-Strep, 1% Glutamine.

[5] = test system: BRAF^V600E monomers (A375 cells); assay: pMEK/pERK inhibition by western blot in A375 melanoma cells; assay type: cell-based; conditions: compared to ponatinib
Description: as §1

[6] = test system: FGFR; assay: Kinase inhibition of known ponatinib target FGFR; assay type: biochemical
[7] = test system: p61BRAF^V600E dimers (SKMEL239-C4 cells); assay: pMEK/pERK inhibition by western blot in SKMEL239-C4 melanoma cells; assay type: cell-based
Description: as §1

[8] = test system: SMEL239 C4 melanoma cells; assay: Cell viability assay (Cell-Titer Glo), SKMEL239 C4; assay type: cell-based; conditions: 72 hours
Description: For cell viability assays, we followed the manufacturer's protocol for Cell-Titer Glo (Promega). In brief, cells were plated in 96-well plates at a density of 5000 cells per well. The next day, cells were treated with increasing concentrations of inhibitors for 72 hours at 37° C. At the end of the incubation period, 100 µL of Cell-Titer Glo (Promega) was added to each well and further incubated for 15 min. at room temperature. Cell viability was determined by measuring luminescence and was detected by a F200 PRO microplate reader (TECAN). Viability assays were performed in at least triplicate and the data normalized to vehicle-treated control wells. IC50 values were determined by nonlinear regression analysis using Prism software (Graphpad).

[9] = test system: BRAF^V600E; assay: Biolayer interferometry, direct binding to purified BRAF; set-up: species or system human
Description: Human BRAF kinase domain (residues 443-723) with V600E mutation in addition to designed mutations to improve expression in E. coli as previously described^12 was cloned into the first multiple cloning site of a pET-28a vector, which expresses a hexa-histidine tag at the N-terminus of BRAF. Recombinant protein was transformed and expressed into E. coli strain BL21-Codon Plus(DE3)-RIPL (Agilent Technologies). Protein purification was performed by a rapid two-step procedure using nickel-affinity chromatography (Ni-NTA) followed by size exclusion chromatography with Superdex200 HR 10/30 (GE Healthcare).
BRAF was biotinylated using EZ-Link™ Sulfo NHS-LC-LC-Biotin (Invitrogen) in phosphate-buffered saline (PBS) according to manufacturer instructions. Excess biotin was removed using size exclusion chromatography. Freshly biotinylated protein was immobilized on Super Streptavidin biosensors (SSA) to high levels (6-8 nm) followed by quenching with biocytin. Compound binding experiments were performed at 25° C. in PBS, 0.01% Tween-20 and 2% DMSO. To reference for bulk solvent effects, binding curves were corrected using data from control protein-free SSA biosensors, which were included in each experiment and were treated similarly to protein-loaded sensors.

[10] = molecular target: BRAF monomer (BRAF509H mutant) (Homo sapiens (Human), UniProt P15056, R509H); assay: Isothermal titration calorimetry with BRAF509H mutant unable to dimerize; assay type: binding; conditions: PBS plus 2% DMSO
Chain of BRAF monomer (BRAF509H mutant) (P15056 443-723 R509H limits assumed): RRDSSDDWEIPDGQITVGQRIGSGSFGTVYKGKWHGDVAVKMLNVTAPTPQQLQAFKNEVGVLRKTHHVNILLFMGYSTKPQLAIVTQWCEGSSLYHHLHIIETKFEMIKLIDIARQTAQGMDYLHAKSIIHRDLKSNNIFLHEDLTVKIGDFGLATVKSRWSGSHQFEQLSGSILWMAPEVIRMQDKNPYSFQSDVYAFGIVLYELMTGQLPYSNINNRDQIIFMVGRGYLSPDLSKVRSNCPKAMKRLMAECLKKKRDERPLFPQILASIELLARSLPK
Description: ITC was recorded using a MicroCal PEAQ-ITC instrument. […] Immediately before each ITC measurement, concentrated protein solution was diluted 0.8× in PBS, matched to 2% DMSO and used in the syringe. Protein was titrated in 18 or 20 injections of 2 l volume until saturation. Thermodynamic parameters were obtained using PEAQ-ITC analysis software and a one-site binding model.

[11] = test system: BRAF/MEK complex; assay: MEK co-immunoprecipitation monitoring BRAF/MEK complex formation in cells; assay type: cell-based; conditions: 1 μM (PHI1) or 1-5 μM (ponatinib), 1 hr
Description: as §2

[12] = test system: BRAF/CRAF heterodimers; assay: CRAF co-immunoprecipitation monitoring BRAF/CRAF heterodimerization in cells; assay type: cell-based; conditions: 1 μM (PHI1) or 1-5 μM (ponatinib), 1 hr
Description: as §2

[13] = molecular target: FLT3 (Homo sapiens (Human), UniProt P36888); assay: Kinase inhibition of known ponatinib target FLT3; assay type: biochemical
Chain of FLT3 (P36888 27-993, species assumed): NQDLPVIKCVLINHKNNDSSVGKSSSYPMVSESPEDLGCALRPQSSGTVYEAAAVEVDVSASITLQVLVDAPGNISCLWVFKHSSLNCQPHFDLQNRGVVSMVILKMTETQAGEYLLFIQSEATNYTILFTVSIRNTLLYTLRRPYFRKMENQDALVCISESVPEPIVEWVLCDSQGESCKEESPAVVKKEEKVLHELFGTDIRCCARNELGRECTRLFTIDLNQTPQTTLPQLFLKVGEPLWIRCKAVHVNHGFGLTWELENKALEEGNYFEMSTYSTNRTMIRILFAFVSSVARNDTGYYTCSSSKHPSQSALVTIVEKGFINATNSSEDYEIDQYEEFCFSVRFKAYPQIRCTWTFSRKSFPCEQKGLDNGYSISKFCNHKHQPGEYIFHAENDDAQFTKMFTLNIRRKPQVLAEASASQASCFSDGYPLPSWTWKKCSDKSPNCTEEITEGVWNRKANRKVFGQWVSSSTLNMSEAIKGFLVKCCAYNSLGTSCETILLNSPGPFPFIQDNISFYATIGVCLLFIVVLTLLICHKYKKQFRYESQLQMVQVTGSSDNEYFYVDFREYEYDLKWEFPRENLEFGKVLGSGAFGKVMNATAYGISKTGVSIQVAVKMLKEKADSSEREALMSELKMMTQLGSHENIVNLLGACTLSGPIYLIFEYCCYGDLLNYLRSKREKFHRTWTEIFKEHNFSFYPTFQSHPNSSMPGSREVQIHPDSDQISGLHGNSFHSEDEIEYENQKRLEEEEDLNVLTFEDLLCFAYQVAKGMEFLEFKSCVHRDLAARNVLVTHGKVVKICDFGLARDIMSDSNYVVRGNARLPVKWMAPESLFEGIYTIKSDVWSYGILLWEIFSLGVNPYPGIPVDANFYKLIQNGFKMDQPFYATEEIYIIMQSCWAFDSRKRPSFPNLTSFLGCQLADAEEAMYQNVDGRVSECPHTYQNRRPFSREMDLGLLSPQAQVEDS

Row | IC50 [1] | SMILES | further results
1 | 1360 nM | C#Cc1cc(C(=O)Nc2ccc(CNCCN3CCOCC3)c(C(F)(F)F)c2)ccc1C [Cmp. 10, 3-ethynyl-4-methyl-N-(4-(((2-morpholinoethyl)amino)methyl)-3-(trifluoromethyl)phenyl)benzamide] | 
2 | 29.4 nM | Cc1ccc(C(=O)Nc2ccc(CNCCN3CCN(S(C)(=O)=O)CC3)c(C(F)(F)F)c2)cc1C#Cc1cnc2cccnn12 [Cmp. 6, 3-(imidazo[1,2-b]pyridazin-3-ylethynyl)-4-methyl-N-(4-(((2-(4-(methylsulfonyl)piperazin-1-yl)ethyl)amino)methyl)-3-(trifluoromethyl)phenyl)benzamide] | 
3 | 44.3 nM | Cc1ccc(C(=O)Nc2ccc(CNCCc3ccncn3)c(C(F)(F)F)c2)cc1C#Cc1cnc2cccnn12 [Cmp. 7, 3-(imidazo[1,2-b]pyridazin-3-ylethynyl)-4-methyl-N-(4-(((2-(pyrimidin-4-yl)ethyl)amino)methyl)-3-(trifluoromethyl)phenyl)benzamide] | 
4 | 30.7 nM | Cc1ccc(C(=O)Nc2ccc(CNCCN3CCC(=O)CC3)c(C(F)(F)F)c2)cc1C#Cc1cnc2cccnn12 [Cmp. 5, 3-(imidazo[1,2-b]pyridazin-3-ylethynyl)-4-methyl-N-(4-(((2-(4-oxopiperidin-1-yl)ethyl)amino)methyl)-3-(trifluoromethyl)phenyl)benzamide] | 
5 | 5.5 nM | Cc1ccc(C(=O)Nc2ccc(CNCCN3CCNCC3)c(C(F)(F)F)c2)cc1C#Cc1cnc2cccnn12 [Cmp. 13, 3-(2-[imidazo[1,2-b]pyridazin-3-yl]ethynyl)-4-methyl-n-[4-([[2-(piperazin-1-yl)ethyl]amino]methyl)-3-(trifluoromethyl)phenyl]benzamide] | 
6 | 11900 nM | C#Cc1cc(C(=O)Nc2ccc(CNCCN3CCNCC3)c(C(F)(F)F)c2)ccc1C [Cmp. 12, 3-Ethynyl-4-Methyl-N-[4-([[2-(Piperazin-1-Yl)Ethyl]Amino]Methyl)-3-(Trifluoromethyl)Phenyl] benzamide] | 
7 | 8940 nM | C#Cc1cc(C(=O)Nc2ccc(CNCCN3CCN(c4ccccc4)CC3)c(C(F)(F)F)c2)ccc1C [Cmp. 11, 3-Ethynyl-4-Methyl-N-[4-([[2-(4-Phenylpiperazin-1-Yl)Ethyl]Amino]Methyl)-3-(Trifluoromethyl)Phenyl] benzamide] | 
8 | 48 nM | COc1cc(N2CCN(CCNCc3ccc(NC(=O)c4ccc(C)c(C#Cc5cnc6cccnn56)c4)cc3C(F)(F)F)CC2)ncn1 [Cmp. 4, 3-(imidazo[1,2-b]pyridazin-3-ylethynyl)-N-(4-(((2-(4-(6-methoxypyrimidin-4-yl)piperazin-1-yl)ethyl)amino)methyl)-3-(trifluoromethyl)phenyl)-4-methylbenzamide] | 
9 | 1830 nM | C#Cc1cc(C(=O)Nc2ccc(CNCCN3CCN(c4ccccn4)CC3)c(C(F)(F)F)c2)ccc1C [Cmp. 14, 3-Ethynyl-4-Methyl-N-(4-(((2-(4-(Pyridin-2-Yl)Piperazin-1-Yl)Ethyl)Amino)Methyl)-3-(Trifluoromethyl)Phenyl) benzamide] | 
10 |  | Cc1ccc(C(=O)Nc2ccc(CN3CCN(C)CC3)c(C(F)(F)F)c2)cc1C#Cc1cnc2cccnn12 [Ponatinib] | Inhibition of BRAF^V600E phosphorylation of recombinant MEK [2]: potent inhibitor; Inhibition of CRAF activity [3]: potently inhibited; Inhibition of ERK signaling [4]: inhibited ERK signaling
11 | 1790 nM | C#Cc1cc(C(=O)Nc2ccc(CNCCN3CCN(C(=O)OC)CC3)c(C(F)(F)F)c2)ccc1C [Cmp. 8, Methyl 4-[2-([[4-(3-Ethynyl-4-Methylbenzamido)-2-(Trifluoromethyl)Phenyl]Methyl] Amino)Ethyl]Piperazine-1-Carboxylate] | 
12 | 10.4 nM | Cc1ccc(C(=O)Nc2ccc(CNCCN3CCOCC3)c(C(F)(F)F)c2)cc1C#Cc1cnc2cccnn12 [PHI1, 3-(imidazo[1,2-b]pyridazin-3-ylethynyl)-4-methyl-N-(4-(((2-morpholinoethyl)amino)methyl)-3-(trifluoromethyl)phenyl)benzamide] | Activity against BRAF^V600E monomers in A375 cells [5]: significantly reduced compared to ponatinib; Reduction of inhibitory activity for FGFR relative to ponatinib [6]: 43 fold; IC50 ([7]; SKMEL239-C4 cells, 1 hr treatment): 300 to 500 nM; Co-operativity in second site inhibition of BRAF^V600E dimer (p-ERK IC50 upon Encorafenib pre-treatment) ([7]; SKMEL239 C4 cells with vs without Encorafenib pre-treatment): positive co-operativity; Growth inhibition (viability) [8]: inhibits effectively the growth; Difference in Koff values versus ponatinib (BLI) [9]: no significant difference; Affinity for BRAF^V600E compared to ponatinib (BLI) ([9]; 25° C., PBS, 0.01% Tween-20, 2% DMSO): higher affinity; Binding affinity for BRAF monomers (ITC) [10]: high micromolar affinity; Induction of BRAF/MEK complexes [11]: induces less; Induction of BRAF/CRAF complexes [12]: induces less; Reduction of inhibitory activity for FLT3 relative to ponatinib [13]: 10 fold
13 | 10900 nM | C#Cc1cc(C(=O)Nc2ccc(CNCCN3CCN(C(=O)OC(C)(C)C)CC3)c(C(F)(F)F)c2)ccc1C [Cmp. 9, Tert-Butyl4-[2-([[4-(3-Ethynyl-4-Methylbenzamido)-2-(Trifluoromethyl)Phenyl]Methyl] Amino)Ethyl]Piperazine-1-Carboxylate] | 

Row | SMILES | IC50 [1] | further results
14 | CCN(C)S(=O)(=O)Nc1ccc(F)c(C(=O)c2c[nH]c3ncc(-c4cnc(C5CC5)nc4)cc23)c1F [PLX7904, reference compound] | 6.7 nM | 
15 | N#Cc1c(Oc2ccc(F)c(NC(=O)Cc3cccc(C(F)(F)F)c3)c2)ccc2nc(NC(=O)C3CC3)sc12 [TAK-632, reference compound] | 36.2 nM | 
